Source: patent US7687540B2, “Substituted propane phosphinic acid esters” (Aventis Pharmaceuticals Inc., priority 2005, dated 2010)

Key:
[1] = Brain levels after oral dosing in mice by LC/MS/MS; format: in vivo, Male CD1 mice; settings: brains collected at 2, 4 and 7 hrs post-dose after oral dosing of test compounds
Procedure: Animals: Male CD1 mice (Charles River) weighing about 25 g—with free access to food and water.
Dose Groups The compounds of this invention were administered to the test animals at a dose, which is molar equivalent to 10 mg/kg of the parent compound, ((R)-3-amino-2-hydroxy-propyl)-cyclohexylmethyl-phosphinic acid. Each of the test compounds was formulated at this dose level to yield a dose volume of 10 mL/kg and administered by oral gavage to a group of three mice per time point in each study group. Formulations: The compounds of this invention were dissolved in vehicle of 0.2% Tween 80 and 0.5% methylcellulose (MC) at a concentration of about 1 mg/mL. Samples: The blood samples (for plasma) were collected at the following time points: 5, 15 30 and 45 min […]; and 1, 2, 3, 4, 5, and 7 hrs post-dose. Brains were collected at 2, 4 and 7 hrs post-dose Blood Handling The blood samples were added to tubes containing 20 μL of a stock 10 mg/ml solution of sodium fluoride. The blood tubes were then stored in a refrigerator at approximately about 4° C. […] Bioanalysis: All plasma and brain samples were then analyzed for concentrations of the test compound as well as the parent compound, ((R)-3-amino-2-hydroxy-propyl)-cyclohexylmethyl-phosphinic acid by LC/MS/MS. […]
Whereas, in most cases, the levels of the test compound was too small to be detected for all of the test compounds analyzed.

Male Wistar rats = test: Chronic Mild Stress Model (CMS), sucrose consumption; format: in vivo; settings: 3 and 30 mg/kg orally, daily for five weeks; imipramine 10 mg/kg ip
Excerpt: CMS uses mild stressors, such as food and water deprivation, cage tilts, changes of cage mates, etc. Over a period of weeks of exposure to the mild stressors, the animals gradually reduce their consumption of a highly preferred sucrose solution which persists (in untreated animals) for several weeks following the cessation of stress. This decreased sensitivity to reward (the sucrose solution) reflects anhedonia, a symptom of a major depressive episode (see for example, Behavioral Pharmacol. 5: Suppl. 1, p. 86 (1994) where lithium, carbamazepine and ketoconazole were evaluated in CMS; Psychopharmacology 93:358-364 (1987) where a tricyclic antidepressant was evaluated in CMS; Behavioral Pharmacology: 5:344-350 (1994) where a catechol-O-methyl transferase inhibitor was evaluated in CMS). […]
The animals are first trained to consume a 1% sucrose solution; training consists of eight 1 hour baseline tests in which sucrose is presented, in the home cage, following 14 hours food and water deprivation; intake is measured by weighing pre-weighed bottles containing the sucrose solution at the end of the test. Subsequently, sucrose consumption is monitored, under similar conditions, at weekly intervals throughout the whole experiment. […]
Results are analyzed by multiple analysis of variance, followed by Fisher's LSD test for post hoc comparisons of means.

SMILES: NC[C@@H](O)CP(=O)(O)CC1CCCCC1 [parent compound, ((R)-3-amino-2-hydroxy-propyl)-cyclohexylmethyl-phosphinic acid]
- concentration of the parent compound in brain [1]: proportional to the concentration of the parent compound in plasma
- activity in CMS (sucrose intake) compared with imipramine (Male Wistar rats): equal to that of imipramine
